Assay results: patent US20230167088A1, “1-PYRAZINYLPYRAZOLYL-3-OXYALKYL ACIDS AND THEIR DERIVATIVES, AND THEIR USE FOR CONTROL OF UNDESIRED PLANT GROWTH” (BAYER AKTIENGESELLSCHAFT, priority 2020, published 2023)

Key:
[1] = tested on: AVEFA; test: Herbicidal post-emergence action 1a (greenhouse pots, visual rating); type: in vivo, Avena fatua; details: rated visually about 3 weeks after treatment, 100% = plants have died, 0% = like control plants
How it was run: (§1)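 Visual scoring versus untreated plants (100% = plants dead, 0% = as control) followed roughly 3 weeks in the greenhouse after treatment. Plants grown in sandy loam pots had been sprayed on green parts at the one-leaf stage, 2–3 weeks post-sowing, with aqueous WP/EC preparations containing 0.5% additive, 600 l/ha, at 320 and/or 80 g/ha.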

[2] = tested on: POLCO; test: as above; type: in vivo, Polygonum convolvulus; details: visual rating about 3 weeks after treatment
How it was run: as §1

[3] = tested on: STEME; test: as above; type: in vivo, Stellaria media; details: rated visually about 3 weeks after treatment, 100% = plants have died, 0% = like control plants
How it was run: as §1

[4] = tested on: POAAN; test: Herbicidal post-emergence action 1b (twin sowing, 1280 g/ha); type: in vivo, Poa annua; details: dosage 1280 g/ha, visual rating about 3 weeks after treatment
How it was run: (§2)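 Compounds formulated as WP or EC were applied with 0.5% additive in 600 L/ha water onto one-leaf-stage weeds, each pot sown with one monocot and one dicot species in sandy loam. After roughly 3 weeks in the greenhouse, visual percent activity was scored against untreated plants.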

[5] = tested on: STEME; test: Herbicidal pre-emergence action 2a (greenhouse pots, visual scoring); type: in vivo, Stellaria media; details: dosage 320 g/ha, visual scoring after about 3 weeks vs untreated controls
Text: (§3) [table] a) Seeds of monocotyledonous and dicotyledonous weed plants and crop plants are placed in plastic or organic plant pots and covered with soil. The compounds of the invention, formulated in the form of wettable powders (WP) or as emulsion concentrates (EC), are then applied onto the surface of the covering soil as aqueous suspension or emulsion with addition of 0.5% additive at a water application rate of 600 1/ha (converted). After the treatment, the pots are placed in a greenhouse and kept under good growth conditions for the trial plants. After about 3 weeks, the effect of the preparations is scored visually in comparison with untreated controls as percentages. For example, 100% activity=the plants have died, 0% activity=like control plants. Tables B1 to B15 below show the effects of selected compounds of the general formula (I) according to Tables 1 and 2 on various harmful plants and an application rate corresponding to 320 g/ha and/or 80 g/ha, which were obtained by the experimental procedure mentioned above.

[6] = tested on: AMARE; test: as above; type: in vivo, Amaranthus retroflexus; details: dosage 320 g/ha, visual scoring after about 3 weeks vs untreated controls
How it was run: (§4)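 Sow, cover with soil, spray soil surface (WP or EC in water, 0.5% additive, 600 l/ha; 320 and/or 80 g/ha), grow in greenhouse ~3 weeks, score visually in % against untreated controls.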

[7] = tested on: ABUTH; test: Herbicidal post-emergence action 1a (greenhouse pots, visual rating); type: in vivo, Abutilon theophrasti; details: dosage 320 g/ha, visual rating about 3 weeks after treatment
How it was run: as §1

[8] = tested on: HORMU; test: as above; type: in vivo, Hordeum murinum; details: rated visually about 3 weeks after treatment, 100% = plants have died, 0% = like control plants
Protocol: [table] a) Seeds of monocotyledonous and dicotyledonous weeds and crop plants are placed in sandy loam in plastic or organic plant pots, covered with soil and cultivated in a greenhouse under controlled growth conditions. 2 to 3 weeks after sowing, the test plants are treated at the one-leaf stage. The compounds of the invention, formulated in the form of wettable powders (WP) or as emulsion concentrates (EC), are then sprayed onto the green parts of the plants as aqueous suspension or emulsion with addition of 0.5% additive at a water application rate of 600 1/ha (converted). After the test plants have been kept in the greenhouse under optimum growth conditions for about 3 weeks, the activity of the preparations is rated visually in comparison to untreated controls. For example, 100% activity=the plants have died, 0% activity=like control plants. Tables A1 to A15 below show the effects of selected compounds of the general formula (I) according to Tables 1 and 2 on various harmful plants and an application rate corresponding to 320 g/ha and/or 80 g/ha, which were obtained by the experimental procedure mentioned above.

[9] = tested on: ABUTH; test: Herbicidal post-emergence action 1b (twin sowing, 1280 g/ha); type: in vivo, Abutilon theophrasti; details: dosage 1280 g/ha, visual rating about 3 weeks after treatment
How it was run: as §2

[10] = tested on: PHBPU; test: Herbicidal pre-emergence action 2a (greenhouse pots, visual scoring); type: in vivo, Pharbitis purpurea; details: dosage 320 g/ha, visual scoring after about 3 weeks vs untreated controls
How it was run: as §4

[11] = tested on: LOLRI; test: Herbicidal post-emergence action 1a (greenhouse pots, visual rating); type: in vivo, Lolium rigidum; details: Dosage 320 g/ha; rated visually about 3 weeks after treatment; 100% = plants have died, 0% = like control plants
How it was run: as §1

[12] = tested on: HORMU; test: Herbicidal pre-emergence action 2a (greenhouse pots, visual scoring); type: in vivo, Hordeum murinum; details: dosage 320 g/ha, visual scoring after about 3 weeks vs untreated controls
Text: as §3

[13] = tested on: MATIN; test: Herbicidal post-emergence action 1a (greenhouse pots, visual rating); type: in vivo, Matricaria inodora; details: dosage 320 g/ha, visual rating about 3 weeks after treatment
How it was run: as §1

[14] = tested on: MATIN; test: Herbicidal post-emergence action 1b (twin sowing, 1280 g/ha); type: in vivo, Matricaria inodora; details: dosage 1280 g/ha, visual rating about 3 weeks after treatment
How it was run: as §2

[15] = tested on: ABUTH; test: Herbicidal pre-emergence action 2a (greenhouse pots, visual scoring); type: in vivo, Abutilon theophrasti; details: dosage 320 g/ha, visual scoring after about 3 weeks vs untreated controls
How it was run: as §4

[16] = tested on: DIGSA; test: Herbicidal pre-emergence action 2b (doubly sown, 1280 g/ha); type: in vivo, Digitaria sanguinalis; details: doubly sown pots, dosage 1280 g/ha, visual scoring after about 3 weeks
How it was run: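 Visual % scores against untreated plants (0% = like control, 100% = dead) were taken roughly 3 weeks after treatment in the greenhouse. Compounds, as WP or EC with 0.5% additive, were applied in 600 l/ha water onto covering soil over seeds of paired mono-/dicot weeds in sandy loam.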

Row | SMILES | Post-emergence action against AVEFA in % ([1]; Dosage 80 g/ha) [%] | Post-emergence action against AVEFA in % ([1]; Dosage 320 g/ha) [%] | Post-emergence action against POLCO in % ([2]; dosage 80 g/ha) [%] | Post-emergence action against STEME in % ([3]; Dosage 320 g/ha) [%] | Post-emergence action at 1280 g/ha against POAAN in % [4] [%] | Pre-emergence action against STEME in % [5] [%] | Pre-emergence action against AMARE in % [6] [%] | Post-emergence action against ABUTH in % [7] [%] | Post-emergence action against HORMU in % ([8]; Dosage 320 g/ha) [%] | Post-emergence action at 1280 g/ha against ABUTH in % [9] [%] | Pre-emergence action against PHBPU in % [10] [%] | Post-emergence action against LOLRI in % [11] [%] | Pre-emergence action against HORMU in % [12] [%] | Post-emergence action against POLCO in % ([2]; dosage 320 g/ha) [%] | Post-emergence action against MATIN in % [13] [%] | Post-emergence action against STEME in % ([3]; Dosage 80 g/ha) [%] | Post-emergence action against HORMU in % ([8]; Dosage 80 g/ha) [%] | Post-emergence action at 1280 g/ha against MATIN in % [14] [%] | Pre-emergence action against ABUTH in % [15] [%] | Pre-emergence action at 1280 g/ha against DIGSA in % [16] [%]
1 | COC(=O)C(C)Oc1nn(-c2cnccn2)c(-c2ccnc(F)c2)c1Cl (racemic) [Example I-05] | 90 | 100 | 80 | 80 | 100 | 100 | 100 | 80 | 90 | 90 | 80 | 90 | 90 | – | – | – | – | – | – | –
2 | COC(=O)C(C)Oc1nn(-c2cnccn2)c(-c2ccc(F)nc2)c1Br (racemic) [Example I-12] | 100 | 100 | – | 90 | 100 | 90 | 100 | 80 | 90 | – | – | 90 | 90 | 90 | 80 | 80 | 90 | 90 | – | –
3 | COC(=O)C(C)Oc1nn(-c2cnccn2)c(-c2ccnc(F)c2)c1Br (racemic) [Example I-10] | 80 | 90 | – | 90 | 100 | – | 90 | – | 80 | – | – | 90 | 80 | – | – | – | 80 | – | – | –
4 | C[C@@H](Oc1nn(-c2cnccn2)c(-c2cccc(F)c2)c1Br)C(=O)O [Example I-48] | 80 | – | – | – | 100 | – | 100 | – | – | 90 | 90 | – | – | 100 | – | – | – | 100 | 100 | 100
